Where “and” joins values, the source holds several entries; their conditions need not be identical. Equal values may be shown once. Read-outs that look alike come from different tables or passages of the source.
How the values were obtained:
[1] = biological target: T1, androgen receptor (AdEasy+rAR, L929 cells) (Rattus norvegicus, UniProt P15207); experiment: L929 Androgen Receptor Functional Assay, Adenovirus Transduction; format: cell-based; settings: for % Activity, L929 androgen receptor functional assay: agonist testing, 3000 nM; for inhibition at 3 µM: L929, antagonist testing with R1881, 3000 nM
T1 construct: expressed in transfected cells; host or cells: L929 cells transduced with adenovirus AdEasy+rAR
T1 sequence (P15207 1-902): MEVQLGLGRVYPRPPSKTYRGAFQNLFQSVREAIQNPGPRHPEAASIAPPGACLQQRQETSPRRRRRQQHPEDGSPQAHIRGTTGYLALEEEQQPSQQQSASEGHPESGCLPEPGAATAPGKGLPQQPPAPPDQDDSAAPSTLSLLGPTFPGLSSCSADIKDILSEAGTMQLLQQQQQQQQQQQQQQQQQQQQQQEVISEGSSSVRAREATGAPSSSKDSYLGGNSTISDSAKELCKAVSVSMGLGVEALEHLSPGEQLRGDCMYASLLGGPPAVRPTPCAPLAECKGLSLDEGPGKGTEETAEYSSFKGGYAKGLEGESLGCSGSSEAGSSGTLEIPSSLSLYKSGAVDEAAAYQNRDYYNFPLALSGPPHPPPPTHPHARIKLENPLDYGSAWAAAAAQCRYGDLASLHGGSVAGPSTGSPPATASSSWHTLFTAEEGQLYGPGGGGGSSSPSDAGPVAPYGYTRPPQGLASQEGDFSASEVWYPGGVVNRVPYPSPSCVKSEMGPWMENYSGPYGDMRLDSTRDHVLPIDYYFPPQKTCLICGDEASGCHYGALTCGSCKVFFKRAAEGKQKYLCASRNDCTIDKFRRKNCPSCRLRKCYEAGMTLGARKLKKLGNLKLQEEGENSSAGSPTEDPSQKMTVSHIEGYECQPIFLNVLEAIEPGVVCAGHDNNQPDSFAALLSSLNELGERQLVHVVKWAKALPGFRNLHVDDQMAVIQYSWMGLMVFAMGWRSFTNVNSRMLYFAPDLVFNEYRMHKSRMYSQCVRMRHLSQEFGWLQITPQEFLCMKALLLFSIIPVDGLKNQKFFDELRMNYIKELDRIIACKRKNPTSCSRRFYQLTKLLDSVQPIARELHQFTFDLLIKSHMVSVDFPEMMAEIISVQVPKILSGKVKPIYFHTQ
How it was run: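 Luminescent reporter readout after 48 h at 37 °C: rat AR delivered by adenovirus (AdEasy+rAR, moi 1:500) into L929 cells grown without phenol red in charcoal-treated serum. Antagonist wells also received R1881 (2.5× dilution at 2.5 nM).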

[2] = test system: testosterone-enhanced ventral prostate and seminal vesicle weights; experiment: Ventral Prostate and Seminal Vesicle Weight in vivo Assay; set-up: species or system rat; settings: immature castrated male Sprague Dawley rats, once daily for five days, usually orally 40 mg/kg, with testosterone propionate 2 mg/kg s.c. Note: key: 'active' if the non weight adjusted prostate weight was ≦40 mg or the % Inhibition prostate weight, body weight adjusted was ≧40% @ 2 mg/day dosage; ID50's, if determined, of ≦15 mg/day also indicated an 'active' compound; listed herein as 'inactive' as they did not meet the specified criteria defined above.
How it was run: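 Wet weights of ventral prostate and seminal vesicles were taken on day six. Castrated immature male Sprague Dawley rats had received five daily doses of testosterone propionate (2 mg/kg s.c.) together with test compound, typically 40 mg/kg orally. Activity was scored from absolute prostate weight or body-weight-adjusted % inhibition.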

[3] = biological target: T2, androgen receptor (AdEasy+rAR, COS-7 cells) (Rattus norvegicus, UniProt P15207); experiment: COS-7 Whole-Cell Androgen Receptor Binding Assay, Adenovirus Transduction; settings: for % Inhibition, COS Binding / inhibition at 3 µM: concentration of 3000 nM
T2 construct: expressed in transfected cells; host or cells: COS-7 cells transduced with adenovirus AdEasy+rAR
T2 sequence (P15207 1-902): T1 sequence (P15207 1-902)
Description: COS-7 cells were plated in 96-well plates at 20,000 cells per well, in a solution of DMEM/F12 (GIBCO) containing 10% (v/v) charcoal-treated fetal bovine serum (Hyclone) and lacking phenol red. The cells were then incubated overnight at 37° C. in 5% (v/v) humidified CO2.
Test compound solutions were prepared by diluting the test compound in 100% (v/v) DMSO, if necessary.
Next, 1 mL of DMEM/F12 lacking phenol red was pipetted into each of the wells of a 2-mL 96-well assay block. […] The wells were carefully mixed by pipette.
In a 15 mL or 50 mL sterile centrifuge tube, a dilution in DMEM/F12 of the adenovirus AdEasy+rAR at a moi of 1:50 per well was prepared.
The medium was removed from the 96-well plates by inversion and the plates dried very briefly, inverted, on a sterile towel. As soon as possible after medium removal, 40 μL of the diluted test compound was added to each well, in duplicate. […] The plates were then incubated for 48 hours at 37° C. in 5% (v/v) humidified CO2.
The medium was removed from the above incubated plates by inversion and dried. Each well was then washed with 0.35 mL of 1× PBS. The PBS was then removed from the plates by inversion and the plates dried.
To each well was then added 50 μL of 0.5% (v/v) Triton X-100 (Sigma) in 1× PBS and the plates placed on a rotary shaker for 5 min. The contents of each well were then transferred to an OptiPlate-96 (Packard) scintillation plate. To each well was then added 0.2 mL of Microscint-20 (Packard) and the wells counted on a TopCount (Packard).
Percent inhibition was determined by testing dilutions of the test compound (usually duplicates of 10 μM) in the binding assay. Counts per well were measured and percents of inhibition determined. […] Counts per well were measured and IC50s determined by linear regression.

[4] = biological target: T3, androgen receptor (rat ventral prostate cytosol) (Rattus norvegicus, UniProt P15207); experiment: Androgen Receptor Binding Using Rat Ventral Prostate Cytosol; settings: Concentration 3000 nM
T3 construct: from tissue; host or cells: ventral prostate cytosol of castrated male Sprague Dawley or Wistar rats
T3 sequence (P15207 1-902): T1 sequence (P15207 1-902)
Description: The assay was run on a 96 well plate with each well filled with a total reaction volume 150 μL, of a solution containing 5 pmol androgen receptor LBD (Panvera) or 30 μL of freshly prepared rat cytosol, 0.5 nM [^3H] […] (TED buffer contains 10 mM Tris.HCl pH 7.4, 1 mM sodium molybdate, 1.5 mM EDTA, 1 mM DTT and 10% (v/v) glycerol.)
On day one, the solution containing receptor, tracer and TED buffer was distributed into a 96 well plate. Diluted test compound or control vehicle was then added to individual wells and the plate incubated at 4° C. overnight.
On day two, to each well was then added 20 μL human γ-globulin (ICN 823102), prepared at 25 mg/ml in TE pH 8.0, and 55 μL 40% polyethylene glycol 8000 (J T Baker U222-08), prepared in TE pH 8.0. The plate was incubated at 4° C. for 60 minutes. During incubation, the harvester was rinsed with 10% PEG 8000, prepared in TE pH 8.0, and a GF/C Unifilter-96 was pre-wet with 10% PEG. The binding reaction was filtered, the retentate was washed three times with 10% PEG and dried under vacuum for a couple of minutes, then dried at 50° C. for 5 min and the plate was bottom sealed. Next, 25 μL of Microscint-20 (Packard) was added to the filter wells and the plate was top sealed. The plate wells were then counted on a TopCount (Packard).
Rat Prostate Cytosol Preparation:
Male Sprague Dawley or Wistar rats (Charles River, 200-300 g) were used for each preparation. The day before preparing the cytosol, the rats were castrated using standard surgical procedures.
The rats were euthanized by carbon dioxide asphyxiation. The rat prostates were quickly removed and placed on ice in pre-chilled, pre-weighed 50 mL plastic tubes. No more than five prostates were placed into one tube. The tubes were then weighed and the prostate tissue wet weights calculated.
To the chilled prostate tissue was then added […] of chilled homogenization buffer. The homogenization buffer was freshly prepared by mixing 10 mM Tris.HCl, pH 7.4, 1 mM sodium molybdate, 1.5 mM EDTA, 1 mM dithiothreitol, 10% (v/v) glycerol and 1% protease inhibitor cocktail (Sigma P 8340).
The prostate tissue was homogenized in a cold room using a pre-chilled Polytron PT3000 homogenizer (Brinkmann). Homogenization was performed at a speed setting of 20, three times for 10 sec bursts. The tubes containing the prostate tissue was kept on ice while homogenizing. The homogenate was allowed to rest on ice for 20 sec between bursts.
The homogenate was then placed into pre-chilled 3 mL polycarbonate ultracentrifuge tubes and centrifuged in the TLA-100 rotor of a TL-100 ultracentrifuge for 12 min at 100,000 rpm at 4° C. The resulting supernatant was stored in 1 mL aliquots at −80° C. until needed.
Binding to the androgen receptor was determined according to the protocol described in Example 86 using the above prepared rat cytosol.
% Inhibition was determined by testing dilutions of the test compound (usually duplicates of 10 μM) in the binding assay. Counts per well were measured and percents of inhibition determined. […] Counts per well were measured and IC50s determined by linear regression.

[5] = read-out: IC50 (nM), COS Binding

SMILES: C[S+]([O-])CCC(C)(O)c1cc2cc([N+](=O)[O-])c(C(F)(F)F)cc2[nH]1 (mixture of isomers) [Compound 50]
- % Activity, L929 androgen receptor functional assay [1]: 2%
- active / inactive: inhibition of testosterone-enhanced prostate weight [2]: inactive
- % Inhibition, COS Binding [3]: 7%

SMILES: CSCC(C)(O)c1cc2cc([N+](=O)[O-])c(C(F)(F)F)cc2[nH]1 (racemic) [Compound 139]
- % Activity, L929 androgen receptor functional assay ([1]; 3 µM): 0% and 1%
- active / inactive: inhibition of testosterone-enhanced prostate weight [2]: active
- inhibition at 3 µM [3]: 94%
- % Inhibition, COS Binding ([3]; 3 µM): 97%
- IC50 [3, 5]: 63 nM and 252 nM

SMILES: CCSCC(C)(O)c1cc2cc(Cl)ccc2n1S(C)(=O)=O (racemic) [Compound 154]
- % Activity, L929 androgen receptor functional assay [1]: 2%
- % Inhibition, L929 androgen receptor functional assay ([1]; antagonist testing with R1881, 3000 nM): 7%
- % Inhibition, COS Binding [3]: 50%

SMILES: CCS(=O)(=O)CC(C)(O)c1[nH]c2cc(C(F)(F)F)c(C#N)cc2c1C (racemic) [Compound 246]
- inhibition at 3 µM [3]: 70%
- IC50 [3, 5]: 616 nM

SMILES: CC(O)(Sc1ccc(N)cc1)c1cc2cc([N+](=O)[O-])c(C(F)(F)F)cc2[nH]1 (racemic) [Compound 266]
- % Activity, L929 androgen receptor functional assay [1]: −4%
- active / inactive: inhibition of testosterone-enhanced prostate weight [2]: inactive
- % Inhibition, Androgen Receptor Binding (Rat Cytosol) [4]: 12.4%

SMILES: CC(C)SC(C)(CO)c1cc2cc([N+](=O)[O-])c(C(F)(F)F)cc2[nH]1 (racemic) [Compound 268]
- % Activity, L929 androgen receptor functional assay [1]: 9%
- active / inactive: inhibition of testosterone-enhanced prostate weight [2]: inactive
- % Inhibition, Androgen Receptor Binding (Rat Cytosol) [4]: −3.3%

SMILES: CCSCC(C)(O)c1[nH]c2cc(C(F)(F)F)c([N+](=O)[O-])cc2c1C#N (single isomer, unassigned) [Compound 247]
- active / inactive: inhibition of testosterone-enhanced prostate weight [2]: inactive
- inhibition at 3 µM [3]: 90%
- IC50 [3, 5]: 60.7 nM

SMILES: CCSCC(C)(O)Cc1cc2cc([N+](=O)[O-])c(C(F)(F)F)cc2[nH]1 (stereo not drawn) [Compound 10]
- active / inactive: inhibition of testosterone-enhanced prostate weight [2]: inactive
- IC50 [3, 5]: > 3000 nM

SMILES: CCSCC(C)(CO)c1cc2cc([N+](=O)[O-])c(C(F)(F)F)cc2[nH]1 (stereo not drawn) [Compound 11]
- active / inactive: inhibition of testosterone-enhanced prostate weight [2]: inactive
- IC50 [3, 5]: > 3000 nM

SMILES: O=[N+]([O-])c1cc2cc(C3(O)CCSCC3)[nH]c2cc1C(F)(F)F [Compound 17]
- active / inactive: inhibition of testosterone-enhanced prostate weight [2]: inactive
- IC50 [3, 5]: > 1500 nM

SMILES: COc1ccc(S(=O)(=O)CC(C)(O)c2cc3cc(Cl)c(C(F)(F)F)cc3n2S(C)(=O)=O)cc1 (stereo not drawn) [Compound 128]
- inhibition at 3 µM [1]: 44%
- % Activity, L929 androgen receptor functional assay [1]: −4%
- IC50 ([3]; IC50 (nM), COS Binding): > 1500 nM
- inhibition at 3 µM [3]: 21%

SMILES: CC(O)(CSc1ccc(C(=O)O)cc1)c1cc2cc(Cl)c(C(F)(F)F)cc2n1S(C)(=O)=O (stereo not drawn) [Compound 132]
- inhibition at 3 µM [1]: 48%
- % Activity, L929 androgen receptor functional assay [1]: −5%
- IC50 ([3]; IC50 (nM), COS Binding): > 3000 nM
- inhibition at 3 µM [3]: 8.7%

SMILES: CSCC(C)(O)c1cc2cc(Cl)c(C(F)(F)F)cc2n1S(C)(=O)=O (stereo not drawn) [Compound 134]
- active / inactive: inhibition of testosterone-enhanced prostate weight [2]: inactive
- IC50 [3, 5]: > 10000 nM

SMILES: CCSCC(C)(OC)c1cc2cc([N+](=O)[O-])c(C(F)(F)F)cc2[nH]1 (stereo not drawn) [Compound 167]
- active / inactive: inhibition of testosterone-enhanced prostate weight [2]: active
- IC50 [3, 5]: > 3000 nM

SMILES: CCS(=O)(=O)CC(C)(O)c1cc2cc([N+](=O)[O-])c(C(F)(F)F)cc2[nH]1 (stereo not drawn) [Compound 175]
- active / inactive: inhibition of testosterone-enhanced prostate weight [2]: active
- IC50 [3, 5]: > 3000 nM

SMILES: CCSCC(C)(O)c1cc2ccc(C(F)(F)F)cc2n1S(C)(=O)=O (stereo not drawn) [Compound 214]
- IC50 [3, 5]: > 3000 nM

SMILES: CCSCC(C)(O)c1cc2cc(C#N)c(Cl)cc2[nH]1 (stereo not drawn) [Compound 225]
- inhibition at 3 µM [1]: 97%
- % Activity, L929 androgen receptor functional assay [1]: 1%
- IC50 ([1]; antagonist testing with R1881): 229 nM
- inhibition at 3 µM [3]: 82%
- IC50 [3, 5]: 142 nM

SMILES: CCSCC(C)(O)c1[nH]c2cc(C(F)(F)F)c([N+](=O)[O-])cc2c1C#N (stereo not drawn) [Compound 242]
- active / inactive: inhibition of testosterone-enhanced prostate weight [2]: inactive
- inhibition at 3 µM [3]: 92%
- IC50 [3, 5]: 305 nM

— patent US7282507B2, “Indole derivatives as selective androgen receptor modulators (SARMS)” (Janssen Pharmaceutica N.V., priority 2004, dated 2007)
